SMILES strings stand for the structures.

One test deals with T1, neurotensin receptor (Homo sapiens, UniProt P30989).
T1 construct: endogenous in cells; host or cells: HT29 cells
T1 sequence (P30989 whole entry): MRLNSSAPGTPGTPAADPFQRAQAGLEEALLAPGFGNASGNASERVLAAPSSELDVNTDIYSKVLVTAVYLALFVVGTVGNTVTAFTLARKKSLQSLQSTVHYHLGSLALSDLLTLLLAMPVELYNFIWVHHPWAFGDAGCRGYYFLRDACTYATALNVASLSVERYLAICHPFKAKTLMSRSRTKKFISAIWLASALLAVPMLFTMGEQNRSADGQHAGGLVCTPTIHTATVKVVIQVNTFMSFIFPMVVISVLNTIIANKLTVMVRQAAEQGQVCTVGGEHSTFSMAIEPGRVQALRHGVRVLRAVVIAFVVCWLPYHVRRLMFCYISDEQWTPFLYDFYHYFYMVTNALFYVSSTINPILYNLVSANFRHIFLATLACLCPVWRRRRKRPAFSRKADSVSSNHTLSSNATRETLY
The test can be described thus: Inhibition of neurotensin-induced calcium mobilization in HT29 cells. It is filed as cell-based.
Conditions: not given
The procedure:
(§1) Thus, the compounds of Formula I were tested for their ability to inhibit [^3 H] neurotensin binding in a receptor assay described by Mazella J., et al., Journal of Biological Chemistry, 263:144-149 (1988) and Kitabgi P., et al., European Journal of Pharmacology, 140:285-293 (1987). Compounds were tested as neurotensin antagonists using the functional assay described by Bunzou J. C., et al., Biochem. J., 264:871-878 (1989) and Turner J., et al., J. Pharm. Exp. Ther., 253:1049-1056 (1990). Thus, compounds were tested for their ability to inhibit neurotensin-induced calcium mobilization in HT29 cells.
(§2) The above test methods are incorporated herein by reference. The data in the table show the neurotensin receptor binding activity and calcium mobilization activity, of representative compounds of Formula I.
For `COc1cccc(OC)c1C(=O)CC(CC(=O)c1ccc(Cl)cc1)c1cccc(C(=O)O)c1` (stereo not drawn) [Example 7, 3-[1-[2-(4-Chlorophenyl)-2-oxoethyl]-3-(2,6-dimethoxyphenyl)-3-oxopropyl]-benzoic acid], the half-inhibitory concentration (IC50) amounted to 2.2 µM.

The target of another test is T2, neurotensin receptor (Mus musculus, UniProt O88319).
T2 construct: from tissue
T2 sequence (O88319 whole entry): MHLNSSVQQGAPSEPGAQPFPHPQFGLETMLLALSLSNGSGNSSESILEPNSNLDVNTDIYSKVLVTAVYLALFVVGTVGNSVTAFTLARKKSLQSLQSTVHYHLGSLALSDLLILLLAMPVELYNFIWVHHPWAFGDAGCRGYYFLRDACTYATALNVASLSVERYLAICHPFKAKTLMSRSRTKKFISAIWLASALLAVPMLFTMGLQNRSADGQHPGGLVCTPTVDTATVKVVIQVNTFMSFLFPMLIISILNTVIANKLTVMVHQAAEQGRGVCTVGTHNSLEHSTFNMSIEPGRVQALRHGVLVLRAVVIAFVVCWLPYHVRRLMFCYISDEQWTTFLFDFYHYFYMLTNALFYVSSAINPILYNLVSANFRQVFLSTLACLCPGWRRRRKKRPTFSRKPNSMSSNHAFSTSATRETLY
In words: Inhibition of [3H] neurotensin binding in a receptor assay. The following applies: [3H] neurotensin receptor binding. As to the method:
as §1, §2
For `O=C(O)c1cccc(C(CCc2ccc(F)cc2)CC(=O)c2ccccc2)c1` (stereo not drawn) [Example 21, 3-[1-[2-(4-Fluorophenyl)ethyl]-3-oxo-3-phenylpropyl]-benzoic acid], the Ki was found to be 29.5 µM.

As for `O=C(O)c1cccc(C(CCc2ccccc2)CC(=O)c2ccc(Cl)cc2)c1` (stereo not drawn) [Example 23, 3-[3-(4-Chlorophenyl)-3-oxo-1-[2-phenylethyl]propyl]-benzoic acid], the Ki was 10.4 µM.

In turn, `O=C(CC(CC(=O)c1ccc(Cl)cc1)c1cccc(-c2nnn[nH]2)c1)c1ccc(Cl)cc1` [Example 18, 1,5-Bis-(4-chlorophenyl)-3-[3-(1H-tetrazol-5-yl)phenyl]-pentane-1,5-dione] yielded a Ki of 5.9 µM.

On to `O=C(O)c1cccc(C(CCc2ccc(Cl)cc2)CC(=O)c2ccc(Cl)cc2)c1` (stereo not drawn) [Example 20, 3-[3-(4-Chlorophenyl)-1-[2-(4-chlorophenyl)ethyl]-3-oxopropyl]-benzoic acid], for which the inhibition constant (Ki) came out at 6.74 µM.

Take `O=C(O)c1cccc(C(CCc2ccc(Cl)cc2)CC(=O)c2ccccc2)c1` (stereo not drawn) [Example 19, 3-[1-[2-(4-Chlorophenyl)ethyl]-3-oxo-3-phenylpropyl]-benzoic acid]: the Ki was 17.7 µM.

In the case of `O=C(O)c1cccc(C(CCc2ccc(F)cc2)CC(=O)c2ccc(F)cc2)c1` (stereo not drawn) [Example 22, 3-[3-(4-Fluorophenyl)-1-[2-(4-fluorophenyl)ethyl]-3-oxopropyl]-benzoic acid], the Ki was 3.24 µM.

`O=C(CC(CC(=O)c1ccc(F)cc1)c1cccc(-c2nnn[nH]2)c1)c1ccc(F)cc1` [Example 17, 1,5-Bis-(4-fluorophenyl)-3-[3-(1H-tetrazol-5-yl)-phenyl]-pentane-1,5-dione]: the Ki was 6.32 µM.

As to `Cc1ccc(C(=O)CC(CC(=O)c2ccc(F)cc2)c2cccc(C(=O)O)c2)cc1` (stereo not drawn) [Example 15, 3-[1-[2-(4-Fluorophenyl)-2-oxoethyl]-3-oxo-3-p-tolylpropyl]-benzoic acid], the Ki was found to be 0.448 µM.

Values taken from patent US5430047A, “Neurotensin antagonists” (Warner-Lambert Company, priority 1994, dated 1995).
